In US9770439B2, “Hepatitis C virus inhibitors” (priority 2013, dated 2017):
Like-named read-outs stand apart in the source and are kept apart here.

Legend:
[1] = test system: HCV replicon, genotype 1a Y93H variant with tyrosine 93 changed to histidine in the NS5A protein; type: cell-based; conditions: for Fold - Synergistic G-1a (Y93H): genotype 1a Y93H replicon, test compound titrated with compound N47 fixed at 200 nM versus titrated singly
Method: Combinations can be examined for synergistic activity using a variety of putative NS5A-targeting compounds and a variety of test compounds. […] The test compound can be chosen from compounds exemplified below, which were prepared by methods known in the art, or from others disclosed in the literature.
Similarly, BMS-790052 can be tested singly and in combination with a fixed amount of compound N47 in the HCV replicon cell based assay consisting of the genotype 1a Y93H variant with tyrosine 93 changed to histidine in the NS5A protein.

[2] = test system: HCV replicon, genotype 1a L31V variant with leucine 31 changed to valine in the NS5A protein; type: cell-based; conditions: for Fold - Synergistic G-1a (L31V): genotype 1a L31V replicon, test compound titrated with compound N47 fixed at 200 nM versus titrated singly
[3] = test system: HCV replicon, genotype-1a variant with glutamine 30 changed to glutamate in the NS5A protein; type: cell-based
Text: The NS5A synergistic inhibitory effect of test compounds can be determined using various amounts of an NS5A-targeting compound with titration of a second compound of interest. […] In one embodiment, the HCV genotype strain can be genotype 1a containing a change at amino acid 30 of the NS5A protein consisting of glutamine to glutamate. The test compound can be chosen from compounds listed above or from others present in the literature.

[4] = test system: HCV replicon, genotype-1a variant with glutamine 30 changed to glutamate in the NS5A protein; conditions: cited from earlier work; for EC50: genotype 1a Q30E replicon
[5] = compound alone, read-out: EC50, titrated singly
[6] = ranking of synergist activity, test compound titrated with BMS-790052 fixed at 200 nM, genotype 1a Q30E replicon

| SMILES | Fold - Synergistic G-1a (Y93H) [1] [Fold] | Fold - Synergistic G-1a (L31V) [2] [Fold] | Fold-Synergistic 1a (Q30E) [3] | other results |
| --- | --- | --- | --- | --- |
| COC(=O)N[C@@H](C(=O)N1CCC[C@H]1c1nc2ccc(C3=NCC(c4ccc(N5CCOCC5)cc4)O3)cc2[nH]1)c1ccccc1 (stereo partly shown) | <10 | <10 | – | – |
| COC(=O)N[C@@H](C(=O)N1CCCC1c1ncc(-c2ccc(-c3ccc(-c4cnc([C@@H]5CCCN5C(=O)[C@H]5CCCO5)[nH]4)cc3)cc2)[nH]1)c1ccccc1 (stereo partly shown) | <10 | <10 | – | – |
| CN(C)[C@@H](C(=O)N1CCC[C@H]1C1=NC(c2ccc(OCc3ccc(-c4c[nH]c([C@@H]5CCCN5C(=O)[C@@H](c5ccccc5)N(C)C)n4)cc3)cc2)CN1)c1ccccc1 (stereo partly shown) | <10 | <10 | – | – |
| CN(C)[C@H](C(=O)N1CCCC[C@H]1c1ncc(-c2ccc(-c3ccc(-c4cnc([C@@H]5CCCCN5C(=O)[C@@H](c5ccccc5)N(C)C)[nH]4)cc3)cc2)[nH]1)c1ccccc1 | >10 | <10 | – | – |
| COC(=O)N[C@H](C(=O)N1[C@H]2C[C@@]2(C)C[C@H]1c1ncc(-c2ccc(-c3ccc(-c4cnc([C@@H]5C[C@@H]6C[C@@H]6N5C(=O)[C@@H](NC(=O)OC)C(C)C)[nH]4)cc3)cc2)[nH]1)C(C)C | >100 | >100 | – | – |
| COC(=O)N[C@H](C(=O)N1C[C@@H](C)CC1c1ncc(-c2ccc(-c3ccc4cc(-c5cnc([C@@H]6C[C@H](C)CN6C(=O)[C@@H](NC(=O)OC)C(C)C)[nH]5)ccc4c3)cc2)[nH]1)C(C)C (stereo partly shown) | >10 | <10 | – | – |
| COC(=O)N[C@H](C(=O)N1C[C@H](C)C[C@H]1c1ncc(-c2ccc(-c3ccc4cc(-c5cnc([C@@H]6C[C@@H](C)CN6C(=O)[C@@H](NC(=O)OC)C(C)C)[nH]5)ccc4c3)cc2)[nH]1)C(C)C | >10 | <10 | – | – |
| COC(=O)N[C@H](C(=O)N1CCCC1c1cn(-c2ccc(-c3ccc(-n4cnc([C@@H]5CCCN5C(=O)[C@@H](NC(=O)OC)C(C)C)c4)cc3)cc2)cn1)C(C)C (stereo partly shown) | >10 | >10 | – | – |
| COC(=O)N[C@H](C(=O)N1C(c2ncc(-c3ccc(-c4cc5cc(-c6c[nH]c([C@@H]7C[C@H]8C[C@H]8N7C(=O)[C@@H](NC(=O)OC)C7CCOCC7)n6)ccc5o4)cc3)[nH]2)C[C@H]2C[C@H]21)C1CCOCC1 (stereo partly shown) | <10 | <10 | – | – |
| COC(=O)N[C@H](C(=O)N1C2C[C@@H]2C[C@H]1c1ncc(-c2ccc(C#Cc3ccc(-c4cnc([C@@H]5C[C@H]6C[C@H]6N5C(=O)[C@@H](NC(=O)OC)C(C)C)[nH]4)cc3)cc2)[nH]1)C(C)C (stereo partly shown) | >10 | <10 | – | – |
| COc1ccccc1C(O)C1(C(=O)N[C@H](c2nc(-c3ccc(-c4ccc(-c5c[nH]c([C@@H](NC(=O)C6(C(O)c7ccccc7OC)CC6)C(C)(C)C)n5)cc4)cc3)c[nH]2)C(C)(C)C)CC1 (single isomer, unassigned) [Compound N-135A] | – | – | >100 | – |
| COc1ccccc1C(O)C1(C(=O)N[C@H](c2nc(-c3ccc(-c4ccc(-c5c[nH]c([C@@H](NC(=O)C6(C(O)c7ccccc7OC)CC6)C(C)(C)C)n5)cc4)cc3)c[nH]2)C(C)(C)C)CC1 (single isomer, unassigned) [Compound N-135B] | – | – | >100 | – |
| COc1ccccc1C(O)C1(C(=O)N[C@H](c2nc(-c3ccc(-c4ccc(-c5c[nH]c([C@@H](NC(=O)C6(C(O)c7ccccc7OC)CC6)C(C)(C)C)n5)cc4)cc3)c[nH]2)C(C)(C)C)CC1 (single isomer, unassigned) [Compound N-135C] | – | – | >100 | – |
| COC(C)(CCO)C(=O)N[C@H](c1nc(-c2ccc(-c3ccc(-c4c[nH]c([C@@H](NC(=O)C(C)(CCO)OC)C(C)(C)C)n4)cc3)cc2)c[nH]1)C(C)(C)C (single isomer, unassigned) [Compound W-258] | – | – | >100 | – |
| COC(C)(CCO)C(=O)N[C@H](c1nc(-c2ccc(-c3ccc(-c4cnc([C@@H](NC(=O)C(C)(CCO)OC)C(C)(C)C)[nH]4)cc3)cc2)c[nH]1)C(C)(C)C (single isomer, unassigned) [Compound W-259] | – | – | >100 | – |
| COC(=O)N[C@H](C(=O)N1CCC[C@H]1c1ncc(-c2ccc(-c3ccc(-c4cnc([C@@H]5CCCN5C(=O)[C@@H](NC(=O)OC)C(C)C)[nH]4)cc3)cc2)[nH]1)C(C)C [BMS-790052, reference compound] | – | – | – | synergistic inhibitory effect for the combination (fold) ([1]; BMS-790052 titrated with N47 fixed at 200 nM, genotype 1a Y93H): > 100 fold; reciprocal synergistic inhibitory effect for the combination (fold) ([4]; BMS-790052 titrated with P-55 fixed at 200 nM, genotype 1a Q30E): ~100 fold; EC50 ([4]; P-55 fixed at 200 nM, read-out: EC50 of BMS-790052 in the presence of a fixed amount of P-55): ~2 nM; EC50 [4, 5]: ~200 nM; synergistic inhibitory effect with the combination (fold) ([2]; BMS-790052 titrated with N47 fixed at 200 nM, genotype 1a L31V): > 100 fold |
| CC1([C@H](NC(=O)C2CCC(F)(F)CC2)c2cc3ccc(C#Cc4ccc5nc([C@@H](NC(=O)C6CCC(F)(F)CC6)C6(C)CC6)[nH]c5c4)cc3[nH]2)CC1 [Compound B67] | – | – | >100 | – |
| CC(C)CC(=O)N[C@H](c1ncc(-c2ccc(-c3ccc(-c4cnc([C@@H](NC(=O)CC(C)C)C(C)C)[nH]4)cc3)cc2)[nH]1)C(C)C [Compound P-55] | – | – | – | synergistic inhibitory effect with the combination (fold) ([4]; P-55 titrated with BMS-790052 fixed at 200 nM, genotype 1a Q30E): > 100 fold; EC50 ([4]; BMS-790052 fixed at 200 nM, read-out: EC50 of P-55 in the presence of a fixed amount of BMS-790052): ~2 nM; EC50 [4, 5]: > 200 nM |
| O=C(C(=O)N1C(c2nc(-c3ccc(-c4ccc(-c5c[nH]c(C6C[C@@H]7C[C@@H]7N6C(=O)C(=O)N6CCC(F)(F)CC6)n5)cc4)cc3)c[nH]2)C[C@@H]2C[C@@H]21)N1CCC(F)(F)CC1 (stereo partly shown) [Compound W-243] | – | – | >100 | – |
| CCOC(=O)NC1(C(=O)N[C@H](c2nc(-c3ccc(-c4ccc(-c5c[nH]c([C@@H](NC(=O)C6(NC(=O)OCC)CCCCC6)C(C)(C)C)n5)cc4)cc3)c[nH]2)C(C)(C)C)CCCCC1 [Compound W-250] | – | – | >100 | – |
| CC(C)(C)C(=O)NC(c1ncc(-c2ccc(-c3ccc(-c4cnc([C@@H](NC(=O)C(C)(C)C)C5(C)CCC5)[nH]4)cc3)cc2)[nH]1)C1(C)CCC1 (stereo partly shown) [Compound Y-39] | – | – | >100 | – |
| CC(C)(C)C(=O)N[C@H](c1ncc(-c2ccc(-c3ccc(-c4cnc([C@@H](NC(=O)C(C)(C)C)C(C)(C)CF)[nH]4)cc3)cc2)[nH]1)C(C)(C)CF [Compound Y-68] | – | – | – | Fold-Synergistic 1a (Q30E) [3, 6]: >100 |
| CC1([C@H](NC(=O)[C@]2(C)CCCC[C@@H]2O)c2ncc(-c3ccc(-c4ccc(-c5cnc([C@@H](NC(=O)[C@]6(C)CCCC[C@@H]6O)C6(C)CC6)[nH]5)cc4)cc3)[nH]2)CC1 [Compound Y-116] | – | – | >100 | – |
| COC(c1ccccc1)C1(C(=O)N[C@H](c2nc(-c3ccc(-c4ccc(-c5c[nH]c([C@@H](NC(=O)C6(C(OC)c7ccccc7)CC6)C(C)(C)C)n5)cc4)cc3)c[nH]2)C(C)(C)C)CC1 (stereo partly shown) [Example N-137] | – | – | – | Fold-Synergistic 1a (Q30E) [3, 6]: <10 |
